In ChEMBL document CHEMBL1201862, “PubChem BioAssay data set” (2004):
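Interpolation was linear, between the two tested concentrations surrounding the appropriate level; five concentrations were tested over 48 hours in 96-well plates. GI50 is the concentration that inhibits growth by half.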 The source made the active and inactive calls. No stated cut-off is given here; in the data, active = GI50 up to about 1.1 µM and inactive = higher.

What was measured:
Experiment in all cases: DTP human tumour cell line panel, 48 h
[1] = tested on: HOP-18
[2] = tested on: RXF 631
[3] = tested on: DLD-1
[4] = tested on: DMS-114
[5] = tested on: M19-MEL
[6] = tested on: DMS-273
[7] = tested on: KM-20L2
[8] = tested on: SNB-78
[9] = tested on: XF498

SMILES | GI50 [1] | GI50 [2] | GI50 [3] | GI50 [4] | GI50 [5] | GI50 [6] | GI50 [7] | GI50 [8] | GI50 [9]
COC(=O)C(=O)C(C(=O)C(=O)Nc1cccc(C(C)=O)c1)c1nc2ccccc2nc1O (centres undefined) | > 100 µM (inactive) | > 100 µM (inactive) | > 100 µM (inactive) | > 100 µM (inactive) | > 100 µM (inactive) | > 100 µM (inactive) | > 100 µM (inactive) | – | –
CC(=O)NC1=C(C)C(=O)c2c(nc3n2CCC3OC(=O)CCl)C1=O (centres undefined) | – | – | 12.9 µM (inactive) | – | 12.5 µM (inactive) | 17.2 µM (inactive) | – | 2.96 µM (inactive) | –
COC(=O)C12OCC34C(CC5C(C)C6=CC(=O)OC6=CC5(C)C3C(O)C1O)OC(=O)C(O)C24 (centres undefined) | 0.676 µM (active) | – | – | 0.859 µM (active) | 0.192 µM (active) | 0.178 µM (active) | 0.957 µM (active) | 0.474 µM (active) | –
O=S(=O)(/C=C/c1ccc(Cl)cc1Cl)Cc1ccccc1CS(=O)(=O)/C=C/c1ccc(Cl)cc1Cl | – | – | 29 µM (inactive) | 31.6 µM (inactive) | 20.9 µM (inactive) | 10.2 µM (inactive) | > 100 µM (inactive) | > 100 µM (inactive) | 32.9 µM (inactive)
N#CC(C(=O)CCC(=O)Nc1ccc(Cl)cc1)c1ccc(Cl)cc1 (centres undefined) | 97.3 µM (inactive) | > 100 µM (inactive) | 71.3 µM (inactive) | > 100 µM (inactive) | > 100 µM (inactive) | > 100 µM (inactive) | 11.5 µM (inactive) | > 100 µM (inactive) | > 100 µM (inactive)
Cc1ccc(S(=O)(=O)N/N=C/c2oc(-c3ccccc3Cl)c(-c3ccccc3Cl)c2[N+](=O)[O-])cc1 | – | 19.3 µM (inactive) | 17.1 µM (inactive) | 17.3 µM (inactive) | 23.3 µM (inactive) | – | 15.4 µM (inactive) | – | –
Nc1c(S(=O)(=O)c2ccccc2)c2nc3ccccc3nc2n2c1nc1ccccc12 | – | 16.9 µM (inactive) | > 86.1 µM (inactive) | > 69.3 µM (inactive) | 29.8 µM (inactive) | 7.67 µM (inactive) | > 100 µM (inactive) | 26.4 µM (inactive) | 11.8 µM (inactive)
CCOC(=O)C12CCCC1(O)N(NC(=O)c1cccc(Cl)c1)C(C)=C2C(=O)OC (centres undefined) | – | 55.7 µM (inactive) | > 100 µM (inactive) | > 100 µM (inactive) | > 100 µM (inactive) | 56.2 µM (inactive) | > 100 µM (inactive) | – | > 100 µM (inactive)
C[C@@H](NS(=O)(=O)c1ccc(NC(=O)c2ccccc2)cc1)C(=O)O | > 100 µM (inactive) | – | > 100 µM (inactive) | – | > 100 µM (inactive) | > 100 µM (inactive) | > 100 µM (inactive) | – | > 100 µM (inactive)
OCC(O)C(OC1OC(CO)C(O)C(O)C1O)c1nn(-c2ccc(Cl)cc2)c2nc3cc(Cl)c(Cl)cc3nc12 (centres undefined) | – | – | > 100 µM (inactive) | > 100 µM (inactive) | > 100 µM (inactive) | – | > 100 µM (inactive) | > 100 µM (inactive) | > 100 µM (inactive)
COC(=O)c1cccn1C(=O)n1cccc1 | > 100 µM (inactive) | – | > 100 µM (inactive) | > 100 µM (inactive) | > 100 µM (inactive) | > 100 µM (inactive) | > 100 µM (inactive) | > 100 µM (inactive) | > 100 µM (inactive)
CCN(CC)CC(=O)NC1c2ccccc2Oc2c(C)cccc21 (centres undefined) | – | – | 81.3 µM (inactive) | > 100 µM (inactive) | > 100 µM (inactive) | > 100 µM (inactive) | 55.7 µM (inactive) | > 100 µM (inactive) | 40 µM (inactive)
CC(=O)C1CCN(c2ccccc2)C1 (centres undefined) | – | – | > 100 µM (inactive) | > 100 µM (inactive) | > 100 µM (inactive) | > 100 µM (inactive) | > 10 µM (inactive) | > 100 µM (inactive) | > 100 µM (inactive)
CCN(CC)CCOC(=O)Cc1cccc2c(=O)cc(-c3ccccc3)oc12 | 78.2 µM (inactive) | – | 94.8 µM (inactive) | 31.8 µM (inactive) | 84.5 µM (inactive) | 361 µM (inactive) | 95.3 µM (inactive) | 84.9 µM (inactive) | 18 µM (inactive)
N#CC12Cc3ccc4c(c3-c3cccc(c31)CCN2C(=O)c1ccccc1)OCO4 (centres undefined) | > 100 µM (inactive) | – | > 100 µM (inactive) | > 100 µM (inactive) | > 100 µM (inactive) | > 100 µM (inactive) | > 100 µM (inactive) | > 100 µM (inactive) | 45 µM (inactive)
O=CC1=CCC2c3[nH]c4ccccc4c3CCN2C1 (centres undefined) | > 396 µM (inactive) | – | 85.5 µM (inactive) | 74.3 µM (inactive) | 71.8 µM (inactive) | 82.4 µM (inactive) | 135 µM (inactive) | – | 72.3 µM (inactive)
Clc1ccc(CCn2cncn2)c(Cl)c1 | 44.6 µM (inactive) | – | > 100 µM (inactive) | > 100 µM (inactive) | > 100 µM (inactive) | > 100 µM (inactive) | > 100 µM (inactive) | > 100 µM (inactive) | –
CC#CC(=O)Nc1ccccc1CC(c1c[nH]c2ccccc12)c1c[nH]c2ccccc12 | – | – | 16.6 µM (inactive) | 14.4 µM (inactive) | 15.3 µM (inactive) | 16.2 µM (inactive) | – | 11.6 µM (inactive) | –
O=C(O)C[C@@H](Cl)[C@H](NC(=O)OCc1ccccc1)C(=O)O | > 100 µM (inactive) | – | > 100 µM (inactive) | > 100 µM (inactive) | > 100 µM (inactive) | > 100 µM (inactive) | > 100 µM (inactive) | > 100 µM (inactive) | > 100 µM (inactive)
Cc1cc2c(=O)cc(-c3ccc(C(F)(F)F)cc3)oc2c(C(=O)O)c1C | > 100 µM (inactive) | > 100 µM (inactive) | > 100 µM (inactive) | > 100 µM (inactive) | > 100 µM (inactive) | > 100 µM (inactive) | > 100 µM (inactive) | > 100 µM (inactive) | > 100 µM (inactive)
COC(=O)C1CCC2(C)[C@H](CCC3O[C@]32C)[C@@]1(C)CC(=O)c1ccoc1 (some centres undefined) | – | – | > 100 µM (inactive) | 46.1 µM (inactive) | > 100 µM (inactive) | > 100 µM (inactive) | > 100 µM (inactive) | > 100 µM (inactive) | 20.4 µM (inactive)
C[C@@H](CN1CC(=O)NC(=O)C1)N1CC(=O)NC(=O)C1 [DEXRAZOXANE] | 422 µM (inactive) | – | 424 µM (inactive) | 70.5 µM (inactive) | 311 µM (inactive) | 218 µM (inactive) | 123 µM (inactive) | 435 µM (inactive) | 102 µM (inactive)
